Measurements: US6274568A, “Compounds for altering cell surface sialic acids and methods of use therefor” (priority 1999, dated 2001)
Entries after “also recorded” stand apart in the source; their conditions may differ.

What was measured:
sialoadhesin = settings: cited from earlier work
[1] = test system: myelin-associated glycoprotein (MAG); settings: cited from earlier work
Jurkat cells [2] = experiment: Uptake of mannosamine precursors and conversion to sialic acids in Jurkat cells, HPLC; assay type: cell-based, human; settings: 20 mM precursor, 48 h
Description: (§1) Cells were harvested using hypertonic Ca^2+ - and Mg^2+ -free phosphate-buffered saline containing 1 mM EDTA, collected by centrifugation, and homogenized in ice-cold water using a Potter-Elvehjem glass/Teflon homogenizer. Methanol (2.6 volumes) was added, the suspension mixed and brought to ambient temperature, then chloroform (1.3 volumes, based on the original homogenate) was added and the suspension mixed vigorously. The suspension was centrifuged 30 min at 2,000×g. After collecting the supernatant, the pellet (containing precipitated proteins) was resuspended in water or concentrated ammonium hydroxide and a portion was used for protein assay (BCA, Pierce, Rockford, Ill.). The supernatant was partitioned by adjusting the chloroform-methanol-water ratio to 4:8:5.6 by addition of water, mixing thoroughly, and centrifuging as above. The upper phase was collected and a portion was subjected to reverse phase chromatography, using Sep-Pak C18 cartridges (Waters, Milford, Mass.), to isolate gangliosides (Schnaar, Methods Enzymol. 230:371, 1994).
(§2) To quantify and identify sialic acids, a portion of resolublized protein, organic/aqueous soluble pool, or reverse-phase purified gangliosides was evaporated to dryness in a 500-μl polypropylene tube and 20 μl of 0.1 M HCl/0.25 M NaCl was added. One Ampliwax bead (Perkin Elmer Corp, Foster City, Calif.) per reaction was added to block evaporation, and the sample hydrolyzed for 3 h at 80° C. Released sialic acids were analyzed by injecting an aliquot (1-10 μl) onto a Dionex high pressure liquid chromatography system (Dionex Corporation, Sunnyvale, Calif.) using a HPIC-AS6 column and a pulsed amperometric detector. Elution solutions were: A, 0.75 mM NaOH; B, 200 mM NaOH; and C, 400 mM sodium acetate in 50 mM NaOH. NeuAc and NeuPr were resolved by elution with 40% A, 50% B, 10% C for 15 min at 1 ml/min. NeuGc was resolved in separate injections using step gradient elution: 0-1.8 min, 18% A, 50% B, 32% C; 2-10 min, 40% B, 60% C. Sialic acids were identified by comparison of their elution time with those of standard NeuAc, NeuPr and NeuGc and were quantified in comparison to a standard curve of commercial NeuAc (for NeuAc and NeuPr) or NeuGc.
(§3) To confirm that the quantified peaks represented sialic acids, 10 μl of acid hydrolysates were treated with 1 μl of 1 M sodium phosphate (pH 7.2) and 10 μl of 0.1 M NaOH. Neutralized samples were incubated at 37° C. for 2 h with or without 0.9 U of N-acetylneuraminic acid aldolase (Sigma), 32 μM NADH and 0.1 μg lactate dehydrogenase. Sialic acid content in the ganglioside and glycoprotein fractions is expressed per mg of total cell protein. Precursor pool sialic acid (sialic acid plus CMP-sialic acid) was calculated by subtracting the ganglioside value from the organic/aqueous pool value, both expressed per mg of cell protein.
Sialic acid is biosynthesized from the precursor sugar N-acetylmannosamine (FIG. 2). In the present invention, sialic acids are converted on live neuronal cells from NeuAc, which is a key determinant for MAG binding, to NeuGc, which is non-permissive for MAG binding. A potential NeuGc precursor, N-glycolylmannosamine monoacetate (ManNGcMA, FIG. 1, R1 =H) was tested for its ability to generate altered sialic acids in neuronal and non-neuronal cells. N-propanoylmannosamine (ManNPr) and other N-acyl mannosamine derivatives have been used to modify glycoprotein associated sialic acids to the corresponding N-acylneuraminic acid. N-propanoyl-mannosamine (ManNPr), was used as a positive control. Jurkat human lymphoma cells and NG108-15 cells (rodent neuroblastoma/glioma hybrid cells) were incubated in 20 mM synthetic precursor or control precursor (N-acetylmannosamine, ManNAc) for 48 h, then harvested. Cell pellets were fractioned into lipid associated, protein associated, and intracellular (lipid and cytoplasmic which may consist of oligosaccharide-bound, free, or CMP-activated sialic acid) sialic acids and hydrolyzed to release sialic acid. […]

NG108-15 cells [3] = experiment: Uptake of mannosamine precursors and conversion to sialic acids (precursor pool, gangliosides, glycoproteins) in NG108-15 cells, HPLC; assay type: cell-based, mouse neuroblastoma/rat glioma hybrid
Description: as §1, §2, §3
Sialic acid is biosynthesized from the precursor sugar N-acetylmannosamine (FIG. 2). In the present invention, sialic acids are converted on live neuronal cells from NeuAc, which is a key determinant for MAG binding, to NeuGc, which is non-permissive for MAG binding. A potential NeuGc precursor, N-glycolylmannosamine monoacetate (ManNGcMA, FIG. 1, R1 =H) was tested for its ability to generate altered sialic acids in neuronal and non-neuronal cells. N-propanoylmannosamine (ManNPr) and other N-acyl mannosamine derivatives have been used to modify glycoprotein associated sialic acids to the corresponding N-acylneuraminic acid. N-propanoyl-mannosamine (ManNPr), was used as a positive control. […] Cell pellets were fractioned into lipid associated, protein associated, and intracellular (lipid and cytoplasmic which may consist of oligosaccharide-bound, free, or CMP-activated sialic acid) sialic acids and hydrolyzed to release sialic acid. The hydrolyzed samples were then analyzed by HPLC to determine sialic acid content. […]

NG108-15 cells [4] = test system: NG108-15 cells
Description: Cell growth rates were determined in control cultures (.box-solid.), in cultures treated with 0.08 mM (.circle-solid.), 0.25 mM (.smallcircle.), or 1 mM (.quadrature.) ManNGcPA, and in cultures treated with 0.25 mM (.tangle-solidup.) or 1 mM (Δ) glucose pentaacetate.
NG108-15 cells were maintained in Dulbecco's modified Eagle's medium (high glucose formulation) containing 5% iron-enriched calf serum, 100 μM hypoxanthine, 16 μM thymidine, and 5 μM aminopterin. […] Both cell types were cultured at 37° C. in a humidified atmosphere of 90% air/10% CO2. For treatment with sialic acid precursors, mannosamine derivatives were diluted into the appropriate medium and filter sterilized. […] In experiments testing ManNGcPA, all cells (control and experimental) were grown in the presence of 0.5% (v/v) DMSO, the carrier for ManNGcPA.

Jurkat cells [5] = experiment: Morphology and viability of precursor-treated Jurkat cells; assay type: cell-based, human
Description: Jurkat cells were maintained in RPMI Medium 1640 (Gibco Life Technologies, Gaithersburg, Md.) supplemented with 10% fetal bovine serum. Both cell types were cultured at 37° C. in a humidified atmosphere of 90% air/10% CO2. For treatment with sialic acid precursors, mannosamine derivatives were diluted into the appropriate medium and filter sterilized. The growth medium was then replaced and cells were cultured in the presence of the precursor for 24-144 h.

NG108-15 cells [6] = settings: cited from earlier work
[7] = NG108-15, 20 mM precursor, 48 h

CC(=O)N[C@H]1[C@H]([C@H](O)[C@H](O)CO)OC(O)(C(=O)O)C[C@@H]1O (stereo partly shown) [NeuAc, N-acetylneuraminic acid]
sialoadhesin binding (sialoadhesin): MAG and sialoadhesin bind NeuAc | support of MAG binding / recognition [1]: support MAG binding; also recorded: MAG and sialoadhesin bind NeuAc

CCC(=O)N[C@@H]1C(O)O[C@H](CO)[C@@H](O)[C@@H]1O (stereo partly shown) [ManNPr, N-Propanoylmannosamine, reference compound]
glycoprotein associated sialic acid in the form of NeuPr (Jurkat cells [2]): ≈ 50% | intracellular sialic acid pool as NeuPr (Jurkat cells [2]): composed predominantly | levels of intracellular sialic acid (Jurkat cells [2]): high levels | lipid associated sialic acid in the form of NeuPr (Jurkat cells [2]): 33% | levels of intracellular sialic acid (Jurkat cells [2]; listed as N-propanoylmannosamine): high levels of intracellular sialic acid similar to that observed with N-acetylmannosamine treatment | incorporation into gangliosides and glycoproteins as NeuPr (NG108-15 cells [3]): efficiently incorporated | increase in intracellular sialic acid (precursor pool) (NG108-15 cells [3]; 20 mM precursor, 48 h): 4 fold | increase in total glycoprotein sialic acid (NG108-15 cells [3]; 20 mM precursor, 48 h): ≈ 1.4 fold | sialic acid precursor pool as NeuPr (NG108-15 cells [3]; 20 mM precursor, 48 h): > 95% | ganglioside (lipid associated) sialic acid in the form of NeuPr (NG108-15 cells [3]; [7]): 70% and ≈ 70% | intracellular sialic acid pool as NeuPr (NG108-15 cells [3]; [7]): composed predominantly | levels of intracellular sialic acid (NG108-15 cells [3]; [7]): high levels | size of the ganglioside pool (NG108-15 cells [3]; [7]): remained relatively constant | levels of intracellular sialic acid (NG108-15 cells [3]; NG108-15, 20 mM precursor, 48 h, listed as N-propanoylmannosamine): high levels of intracellular sialic acid similar to that observed with N-acetylmannosamine treatment | alteration of cell morphology or viability (NG108-15 cells [4]): did not seem to alter cell morphology or viability significantly | alteration of cell morphology or viability (Jurkat cells [5]): did not seem to alter cell morphology or viability significantly

B1: MAG: Myelin associated glycoprotein (MAG), a sialic acid binding lectin and member of the siglec family (protein, UniProt P20916 20-626, looked up)
Myelin-associated glycoprotein: GHWGAWMPSSISAFEGTCVSIPCRFDFPDELRPAVVHGVWYFNSPYPKNYPPVVFKSRTQVVHESFQGRSRLLGDLGLRNCTLLLSNVSPELGGKYYFRGDLGGYNQYTFSEHSVLDIVNTPNIVVPPEVVAGTEVEVSCMVPDNCPELRPELSWLGHEGLGEPAVLGRLREDEGTWVQVSLLHFVPTREANGHRLGCQASFPNTTLQFEGYASMDVKYPPVIVEMNSSVEAIEGSHVSLLCGADSNPPPLLTWMRDGTVLREAVAESLLLELEEVTPAEDGVYACLAENAYGQDNRTVGLSVMYAPWKPTVNGTMVAVEGETVSILCSTQSNPDPILTIFKEKQILSTVIYESELQLELPAVSPEDDGEYWCVAENQYGQRATAFNLSVEFAPVLLLESHCAAARDTVQCLCVVKSNPEPSVAFELPSRNVTVNESEREFVYSERSGLVLTSILTLRGQAQAPPRVICTARNLYGAKSLELPFQGAHRLMWAKIGPVGAVVAFAILIAIVCYITQTRRKKNVTESPSFSAGDNPPVLFSSDFRISGAPEKYESERRLGSERRLLGLRGEPPELDLSYSHSDLGKRPTKDSYTLTEELAEYAEIRVK
neurite outgrowth from NG108-15 cells (NG108-15 cells [6]): inhibited
